From PubChem BioAssay (NCI)
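These data come from cells grown in 96-well plates and exposed to compound for 48 hours at five concentrations. Abbreviation: GI50, concentration required for 50% inhibition of growth. TGI is the concentration that stops growth completely.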

How the values were obtained:
Assay in all cases: inhibition of tumour cell growth, NCI panel, 48 h
RXF 393 renal = system: RXF 393 renal
SNB-19 CNS = system: SNB-19 CNS
NCI/ADR-RES ovarian = system: NCI/ADR-RES ovarian
CCRF-CEM leukemia = system: CCRF-CEM leukemia
NCI-H522 lung = system: NCI-H522 lung
HS 578T breast = system: HS 578T breast
A549 NSCLC = system: A549 NSCLC
OVCAR-8 ovarian = system: OVCAR-8 ovarian
DLD-1 colon = system: DLD-1 colon
KM20L2 colon = system: KM20L2 colon

| Compound | GI50 (RXF 393 renal) | TGI (RXF 393 renal) | GI50 (SNB-19 CNS) | TGI (SNB-19 CNS) | GI50 (NCI/ADR-RES ovarian) | TGI (NCI/ADR-RES ovarian) | GI50 (CCRF-CEM leukemia) | TGI (CCRF-CEM leukemia) | GI50 (NCI-H522 lung) | TGI (NCI-H522 lung) | GI50 (HS 578T breast) | TGI (HS 578T breast) | GI50 (A549 NSCLC) | TGI (A549 NSCLC) | GI50 (OVCAR-8 ovarian) | TGI (OVCAR-8 ovarian) | TGI (DLD-1 colon) | TGI (KM20L2 colon) |
| --- | --- | --- | --- | --- | --- | --- | --- | --- | --- | --- | --- | --- | --- | --- | --- | --- | --- | --- |
| COc1cc2c(cc1OCCCOc1ccc(-c3nc4ccc(N5CCN(C)CC5)cc4[nH]3)cc1)N=C[C@@H]1CCCN1C2=O | < 0.01 µM | < 0.01 µM | < 0.01 µM | 17.1 µM | < 0.017 µM | 0.161 µM | < 0.01 µM | 2.33 µM | < 0.01 µM | < 0.01 µM | < 0.01 µM | < 0.01 µM | < 0.01 µM | < 0.0222 µM | < 0.01 µM | < 0.01 µM | – | – |
| CC(C)N1C(C)[C@@H](c2ccccc2)O[P@]1(=O)CC1=CCCCC1 (stereo not given in full) | – | > 100 µM | – | > 100 µM | – | – | – | > 100 µM | – | > 100 µM | – | – | – | > 100 µM | – | > 100 µM | > 100 µM | > 100 µM |
| H-QIYKKYRTWYRKAWKVLGKV-NH2 | 4.55 µM | 27.4 µM | 17.5 µM | 68.6 µM | 4.81 µM | > 100 µM | 4.14 µM | > 100 µM | 25.8 µM | > 100 µM | 2.57 µM | 8.51 µM | 12.7 µM | 47.7 µM | 3.8 µM | > 100 µM | – | – |
| S=c1c2ccccc2c(=S)n2n1CC=CC2 | – | > 100 µM | – | > 100 µM | – | – | – | > 100 µM | – | > 100 µM | – | – | – | > 100 µM | – | > 100 µM | > 100 µM | > 100 µM |
| COC(=O)C(=O)C(C(=O)C(=O)Nc1cc(Cl)c(Cl)cc1Cl)c1nc2ccc([N+](=O)[O-])cc2[nH]c1=O (stereo not given) | – | > 100 µM | – | > 100 µM | – | – | – | > 100 µM | – | > 100 µM | – | – | – | > 100 µM | – | > 100 µM | – | > 100 µM |
